# Measured values as given in patent US20080114007A1 (priority 2006, published 2008).
# pIC50: −log10 of the molar value.
# Target: CSF-1R (Homo sapiens, UniProt P07333)
# Assay: Peptide (non-phosphorylated) assay, fluorescence polarization competition immunoassay
# Format: biochemical
# Conditions: 0.7 nM CSF-1R, 308 μM SYEGNSYTFIDPTQ peptide, 1 mM ATP, 80 min; mean of at least three determinations; read-out: c-fms Peptide IC50
# Experimental: The kinase reaction was initiated by adding 1 μL of 10 mM ATP in assay buffer. […] Positive and negative control wells were included on each plate, where 4% DMSO in assay buffer was substituted for the compound; in addition, positive control wells received 1.2 μL of 50 mM EDTA before the start of the reaction.
# The plates were covered and incubated at room temperature for 80 min. Reactions were stopped by addition of 1.2 μL of 50 mM EDTA. Each well then received 10 μL of a 1:1:3 mixture of 10× anti-phosphotyrosine antibody, 10×PTK green tracer, and FP dilution buffer, respectively (Cat. # P2837, Invitrogen, Carlsbad, Calif.). The plates were covered, incubated for 30 min at room temperature, and the fluorescence polarization was read on an Analyst plate reader (Molecular Devices).
# Chain of CSF-1R (P07333 20-972): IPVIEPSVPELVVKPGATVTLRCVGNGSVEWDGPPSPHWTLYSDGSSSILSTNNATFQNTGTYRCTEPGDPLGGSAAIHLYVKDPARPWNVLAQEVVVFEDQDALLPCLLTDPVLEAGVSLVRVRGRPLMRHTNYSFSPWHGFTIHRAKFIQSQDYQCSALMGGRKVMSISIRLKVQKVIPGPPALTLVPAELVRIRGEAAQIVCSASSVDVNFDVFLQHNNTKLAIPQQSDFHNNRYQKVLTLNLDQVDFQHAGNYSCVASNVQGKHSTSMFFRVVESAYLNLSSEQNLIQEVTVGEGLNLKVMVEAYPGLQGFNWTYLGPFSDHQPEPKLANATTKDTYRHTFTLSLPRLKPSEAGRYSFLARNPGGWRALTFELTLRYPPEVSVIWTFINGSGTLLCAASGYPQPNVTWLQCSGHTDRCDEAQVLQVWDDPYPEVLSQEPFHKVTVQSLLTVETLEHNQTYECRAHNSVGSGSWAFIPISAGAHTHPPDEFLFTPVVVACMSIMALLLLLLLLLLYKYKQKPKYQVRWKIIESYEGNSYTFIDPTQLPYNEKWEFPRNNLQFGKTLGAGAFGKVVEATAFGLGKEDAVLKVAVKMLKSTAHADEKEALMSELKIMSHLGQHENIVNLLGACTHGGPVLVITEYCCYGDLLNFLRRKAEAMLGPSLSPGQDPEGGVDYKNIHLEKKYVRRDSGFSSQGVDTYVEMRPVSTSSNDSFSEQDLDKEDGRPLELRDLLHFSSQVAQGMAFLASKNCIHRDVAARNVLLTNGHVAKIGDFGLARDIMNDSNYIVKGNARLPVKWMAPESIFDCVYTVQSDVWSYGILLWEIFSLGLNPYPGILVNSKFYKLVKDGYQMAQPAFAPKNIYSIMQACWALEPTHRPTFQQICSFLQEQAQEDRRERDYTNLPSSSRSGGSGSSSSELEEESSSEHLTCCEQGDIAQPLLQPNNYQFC
row,Structure (SMILES),pIC50
1,CONC(=O)c1cn(-c2cccc(C(F)(F)F)c2)c2nc(Nc3ccc(C4CCN(C)CC4)cc3)ncc2c1=O,9.10
2,CONC(=O)c1cn(-c2ccc3c(c2)CCC3)c2nc(Nc3ccc(CCN4CCCC(F)(F)C4)cc3)ncc2c1=O,8.77
3,"CC(C)NC(=O)c1cn(-c2ccc3c(c2)CCC3)c2nc(Nc3cccc(N4CCNCC4)c3)ncc2c1=O [Cpd 1, 8-indan-5-yl-5-oxo-2-(3-piperazin-1-yl-phenylamino)-5,8-dihydro-pyrido[2,3-d]pyrimidine-6-carboxylic acid isopropylamide]",8.35
4,"CONC(=O)c1cn(-c2ccc3c(c2)CCC3)c2nc(Nc3cccc(N4CCNCC4)c3)ncc2c1=O [Cpd 2, 8-indan-5-yl-5-oxo-2-(3-piperazin-1-yl-phenylamino)-5,8-dihydro-pyrido[2,3-d]pyrimidine-6-carboxylic acid methoxy-amide]",9.25
5,"CN1CCN(CCc2ccc(Nc3ncc4c(=O)c(C(N)=O)cn(-c5ccc(F)c(Cl)c5)c4n3)cc2)CC1 [Cpd 3, 8-(3-chloro-4-fluoro-phenyl)-2-{4-[2-(4-methyl-piperazin-1-yl)-ethyl]-phenylamino}-5-oxo-5,8-dihydro-pyrido[2,3-d]pyrimidine-6-carboxylic acid amide]",7.55
6,"CONC(=O)c1cn(-c2ccc(F)c(Cl)c2)c2nc(Nc3ccc(CCN4CCN(C)CC4)cc3)ncc2c1=O [Cpd 4, 8-(3-chloro-4-fluoro-phenyl)-2-{4-[2-(4-methyl-piperazin-1-yl)-ethyl]-phenylamino}-5-oxo-5,8-dihydro-pyrido[2,3-d]pyrimidine-6-carboxylic acid methoxy amide]",8.66
7,"NC(=O)c1cn(-c2ccc3c(c2)CCC3)c2nc(Nc3ccc(CCN4CCCC4)cc3)ncc2c1=O [Cpd 5, 8-indan-5-yl-5-oxo-2-[4-(2-pyrrolidin-1-yl-ethyl)-phenylamino]-5,8-dihydro-pyrido[2,3-d]pyrimidine-6-carboxylic acid amide]",8.82
8,"NC(=O)c1cn(-c2ccc3c(c2)CCC3)c2nc(Nc3ccc(N4CCC[C@H]4CO)cc3)ncc2c1=O [Cpd 6, (S)-2-[4-(2-hydroxymethyl-pyrrolidin-1-yl)-phenylamino]-8-indan-5-yl-5-oxo-5,8-dihydro-pyrido[2,3-d]pyrimidine-6-carboxylic acid amide]",8.51
9,"CONC(=O)c1cn(-c2ccc3c(c2)CCC3)c2nc(Nc3ccc(N4CCC[C@H]4CO)cc3)ncc2c1=O [Cpd 7, (S)-2-[4-(2-hydroxymethyl-pyrrolidin-1-yl)-phenylamino]-8-indan-5-yl-5-oxo-5,8-dihydro-pyrido[2,3-d]pyrimidine-6-carboxylic acid methoxy-amide]",8.77
10,"NC(=O)c1cn(-c2ccc3c(c2)CCC3)c2nc(Nc3ccc(CN4CCCC4=O)cc3)ncc2c1=O [Cpd 8, 8-indan-5-yl-5-oxo-2-[4-(2-oxo-pyrrolidin-1-ylmethyl)-phenylamino]-5,8-dihydro-pyrido[2,3-d]pyrimidine-6-carboxylic acid amide]",8.80
11,"CONC(=O)c1cn(-c2ccc3c(c2)CCC3)c2nc(Nc3ccc(CN4CCCC4=O)cc3)ncc2c1=O [Cpd 9, 8-indan-5-yl-5-oxo-2-[4-(2-oxo-pyrrolidin-1-ylmethyl)-phenylamino]-5,8-dihydro-pyrido[2,3-d]pyrimidine-6-carboxylic acid methoxy-amide]",9.62
12,"CONC(=O)c1cn(C2CCCCC2)c2nc(Nc3ccc(N4CCCC4)cc3)ncc2c1=O [Cpd 10, 8-cyclohexyl-5-oxo-2-(4-pyrrolidin-1-yl-phenylamino)-5,8-dihydro-pyrido[2,3-d]pyrimidine-6-carboxylic acid methoxy-amide]",8.68
13,"CONC(=O)c1cn(C2CCCCC2)c2nc(Nc3ccc(C(=O)N4CCCC4)cc3)ncc2c1=O [Cpd 11, 8-cyclohexyl-5-oxo-2-[4-(pyrrolidine-1-carbonyl)-phenylamino]-5,8-dihydro-pyrido[2,3-d]pyrimidine-6-carboxylic acid methoxy-amide]",< 6.52
14,"CONC(=O)c1cn(C2CCCCC2)c2nc(Nc3ccc(CN4CCCC4=O)cc3)ncc2c1=O [Cpd 12, 8-cyclohexyl-5-oxo-2-[4-(2-oxo-pyrrolidin-1-ylmethyl)-phenylamino]-5,8-dihydro-pyrido[2,3-d]pyrimidine-6-carboxylic acid methoxy-amide]",8.89
15,"CONC(=O)c1cn(C2CCCCC2)c2nc(Nc3ccc(CCN4CCCC4=O)cc3)ncc2c1=O [Cpd 13, 8-cyclohexyl-5-oxo-2-{4-[2-(2-oxo-pyrrolidin-1-yl)-ethyl]-phenylamino}-5,8-dihydro-pyrido[2,3-d]pyrimidine-6-carboxylic acid methoxy-amide]",8.80
16,"CCONC(=O)c1cn(C2CCCCC2)c2nc(Nc3ccc(CCN4CCCC4)cc3)ncc2c1=O [Cpd 15, 8-cyclohexyl-5-oxo-2-[4-(2-pyrrolidin-1-yl-ethyl)-phenylamino]-5,8-dihydro-pyrido[2,3-d]pyrimidine-6-carboxylic acid ethoxy-amide]",9.72
17,"CC(C)ONC(=O)c1cn(C2CCCCC2)c2nc(Nc3ccc(CCN4CCCC4)cc3)ncc2c1=O [Cpd 16, 8-cyclohexyl-5-oxo-2-[4-(2-pyrrolidin-1-yl-ethyl)-phenylamino]-5,8-dihydro-pyrido[2,3-d]pyrimidine-6-carboxylic acid isopropoxy-amide]",9.19
18,"O=C(NO)c1cn(C2CCCCC2)c2nc(Nc3ccc(CCN4CCCC4)cc3)ncc2c1=O [Cpd 17, 8-cyclohexyl-5-oxo-2-[4-(2-pyrrolidin-1-yl-ethyl)-phenylamino]-5,8-dihydro-pyrido[2,3-d]pyrimidine-6-carboxylic acid hydroxyamide]",9.03
19,"CONC(=O)c1cn(C2CCCCC2)c2nc(Nc3ccc(CCN4CCN(C)CC4)cc3)ncc2c1=O [Cpd 18, 8-cyclohexyl-2-{4-[2-(4-methyl-piperazin-1-yl)-ethyl]-phenylamino}-5-oxo-5,8-dihydro-pyrido[2,3-d]pyrimidine-6-carboxylic acid methoxy-amide]",9.52
20,"CCONC(=O)c1cn(C2CCCCC2)c2nc(Nc3ccc(CCN4CCN(C)CC4)cc3)ncc2c1=O [Cpd 19, 8-cyclohexyl-2-{4-[2-(4-methyl-piperazin-1-yl)-ethyl]-phenylamino}-5-oxo-5,8-dihydro-pyrido[2,3-d]pyrimidine-6-carboxylic acid ethoxy-amide]",9.00
21,"CONC(=O)c1cn(C2CCCCC2)c2nc(Nc3ccc(CCN4CCOCC4)cc3)ncc2c1=O [Cpd 20, 8-cyclohexyl-2-[4-(2-morpholin-4-yl-ethyl)-phenylamino]-5-oxo-5,8-dihydro-pyrido[2,3-d]pyrimidine-6-carboxylic acid methoxy-amide]",8.52
22,"CCONC(=O)c1cn(C2CCCCC2)c2nc(Nc3ccc(CCN4CCOCC4)cc3)ncc2c1=O [Cpd 21, 8-cyclohexyl-2-[4-(2-morpholin-4-yl-ethyl)-phenylamino]-5-oxo-5,8-dihydro-pyrido[2,3-d]pyrimidine-6-carboxylic acid ethoxy-amide]",9.00
23,"CONC(=O)c1cn(C2CCCCC2)c2nc(Nc3ccc(C[C@H]4COC(=O)N4)cc3)ncc2c1=O [Cpd 22, (S)-8-cyclohexyl-5-oxo-2-[4-(2-oxo-oxazolidin-4-ylmethyl)-phenylamino]-5,8-dihydro-pyrido[2,3-d]pyrimidine-6-carboxylic acid methoxy-amide]",8.82
24,"CCONC(=O)c1cn(C2CCCCC2)c2nc(Nc3ccc(C[C@H]4COC(=O)N4)cc3)ncc2c1=O [Cpd 23, (S)-8-cyclohexyl-5-oxo-2-[4-(2-oxo-oxazolidin-4-ylmethyl)-phenylamino]-5,8-dihydro-pyrido[2,3-d]pyrimidine-6-carboxylic acid ethoxy-amide]",8.52
25,"CONC(=O)c1cn(C2CCCCC2)c2nc(Nc3ccc(N4CC(C)NC(C)C4)cc3)ncc2c1=O (stereo not drawn) [Cpd 24, 8-cyclohexyl-2-[4-(3,5-dimethyl-piperazin-1-yl)-phenylamino]-5-oxo-5,8-dihydro-pyrido[2,3-d]pyrimidine-6-carboxylic acid methoxy-amide]",8.74
26,"CCONC(=O)c1cn(C2CCCCC2)c2nc(Nc3ccc(N4CC(C)NC(C)C4)cc3)ncc2c1=O (stereo not drawn) [Cpd 25, 8-cyclohexyl-2-[4-(3,5-dimethyl-piperazin-1-yl)-phenylamino]-5-oxo-5,8-dihydro-pyrido[2,3-d]pyrimidine-6-carboxylic acid ethoxy-amide]",8.68
27,"CONC(=O)c1cn(C2CCCCC2)c2nc(Nc3ccc(C4CCNCC4)cc3)ncc2c1=O [Cpd 26, 8-cyclohexyl-5-oxo-2-(4-piperidin-4-yl-phenylamino)-5,8-dihydro-pyrido[2,3-d]pyrimidine-6-carboxylic acid methoxy-amide]",8.85
28,"CCONC(=O)c1cn(C2CCCCC2)c2nc(Nc3ccc(C4CCNCC4)cc3)ncc2c1=O [Cpd 27, 8-cyclohexyl-5-oxo-2-(4-piperidin-4-yl-phenylamino)-5,8-dihydro-pyrido[2,3-d]pyrimidine-6-carboxylic acid ethoxy-amide]",8.80
29,"CONC(=O)c1cn(C2CCCCC2)c2nc(Nc3ccc(C4CCN(C(C)=O)CC4)cc3)ncc2c1=O [Cpd 28, 2-[4-(1-acetyl-piperidin-4-yl)-phenylamino]-8-cyclohexyl-5-oxo-5,8-dihydro-pyrido[2,3-d]pyrimidine-6-carboxylic acid methoxy-amide]",8.66
30,"CCONC(=O)c1cn(C2CCCCC2)c2nc(Nc3ccc(C4CCN(C(C)=O)CC4)cc3)ncc2c1=O [Cpd 29, 2-[4-(1-acetyl-piperidin-4-yl)-phenylamino]-8-cyclohexyl-5-oxo-5,8-dihydro-pyrido[2,3-d]pyrimidine-6-carboxylic acid ethoxy-amide]",9.00
